We go through one compound from PMC5218480 (PLoS ONE, 2017).

The structures appear in SMILES notation.

For the assay, the system named is MV-4-11 cells. Nature of the assay: Gene expression microarray analysis (Affymetrix PrimeView) and GSEA. Type of assay: cell-based, human. More on the design: RFU PODN (11730768_x_at) / Fold change /veh PODN (11730768_x_at) / RFU LINC00158 (11744669_a_at) / Fold change /veh LINC00158 (11744669_a_at) / RFU DUSP10 (11751237_a_at) / Fold change /veh DUSP10 (11751237_a_at) / RFU ID3 (11757404_x_at) / Fold change /veh ID3 (11757404_x_at) / RFU PLEKHG5 (11737974_s_at) / Fold change /veh PLEKHG5 (11737974_s_at) / RFU LRRC4B (11730491_at) / Fold change /veh LRRC4B (11730491_at) / RFU GIMAP4 (11747438_a_at) / Fold change /veh GIMAP4 (11747438_a_at) / RFU KRT8 (11758183_x_at) / Fold change /veh KRT8 (11758183_x_at) / RFU CNN1 (11734310_a_at) / Fold change /veh CNN1 (11734310_a_at) / RFU VPS37D (11726825_at) / Fold change /veh VPS37D (11726825_at) / RFU C10orf10 (11716522_x_at) / Fold change /veh C10orf10 (11716522_x_at) / RFU KIR2DL2 /// KIR2DL4 /// KIR2DL5A /// KIR2DL5B /// KIR2DS1 /// KIR2DS2 /// KIR2DS3 /// KIR2DS4 /// KIR3DL3 /// KIR3DL3 /// KIR3DS1 (11738374_at) / Fold change /veh KIR2DL2 /// KIR2DL4 /// KIR2DL5A /// KIR2DL5B /// KIR2DS1 /// KIR2DS2 /// KIR2DS3 /// KIR2DS4 /// KIR3DL3 /// KIR3DL3 /// KIR3DS1 (11738374_at) / RFU C1QL1 (11718748_at) / Fold change /veh C1QL1 (11718748_at) / RFU TMPRSS4 (11747572_a_at) / Fold change /veh TMPRSS4 (11747572_a_at) / RFU HAMP (11756126_x_at) / Fold change /veh HAMP (11756126_x_at) / RFU RNFT2 (11725882_a_at) / Fold change /veh RNFT2 (11725882_a_at) / RFU NR4A2 (11747474_a_at) / Fold change /veh NR4A2 (11747474_a_at) / RFU ABCC12 (11746883_a_at) / Fold change /veh ABCC12 (11746883_a_at) / RFU TMEM136 (11760407_x_at) / Fold change /veh TMEM136 (11760407_x_at) / RFU CLDN22 /// WWC2 (11732394_at) / Fold change /veh CLDN22 /// WWC2 (11732394_at) / RFU HLA-DPB1 (11760878_x_at) / Fold change /veh HLA-DPB1 (11760878_x_at) / RFU SPINT1 (11716480_a_at) / Fold change /veh SPINT1 (11716480_a_at) / RFU GAP43 (11754022_s_at) / Fold change /veh GAP43 (11754022_s_at) / RFU A4GNT (11735810_at) / Fold change /veh A4GNT (11735810_at) / RFU PRB3 (11715151_x_at) / Fold change /veh PRB3 (11715151_x_at) / RFU TUBB4B (11761932_at) / Fold change /veh TUBB4B (11761932_at) / RFU CAPN14 (11732068_a_at) / Fold change /veh CAPN14 (11732068_a_at) / RFU TMCC2 (11721928_a_at) / Fold change /veh TMCC2 (11721928_a_at) / RFU IRGQ (11745062_a_at) / Fold change /veh IRGQ (11745062_a_at) / RFU FAM174B (11720279_a_at) / Fold change /veh FAM174B (11720279_a_at) / RFU TMPRSS4 (11748680_a_at) / Fold change /veh TMPRSS4 (11748680_a_at) / RFU FAM212B (11763350_a_at) / Fold change /veh FAM212B (11763350_a_at) / RFU PLEKHG5 (11743358_a_at) / Fold change /veh PLEKHG5 (11743358_a_at) / RFU ZSCAN30 (11745921_a_at) / Fold change /veh ZSCAN30 (11745921_a_at) / RFU CMKLR1 (11741424_a_at) / Fold change /veh CMKLR1 (11741424_a_at) / RFU LOC101060620 /// MAPK8IP1 (11723275_at) / Fold change /veh LOC101060620 /// MAPK8IP1 (11723275_at) / RFU SPTSSB (11747773_x_at) / Fold change /veh SPTSSB (11747773_x_at) / RFU PRSS12 (11739890_at) / Fold change /veh PRSS12 (11739890_at) / RFU BIN1 (11741810_x_at) / Fold change /veh BIN1 (11741810_x_at) / RFU WNT11 (11732464_a_at) / Fold change /veh WNT11 (11732464_a_at) / RFU C10orf10 (11716521_a_at) / Fold change /veh C10orf10 (11716521_a_at) / RFU C5orf56 (11738089_at) / Fold change /veh C5orf56 (11738089_at) / RFU CYB561 (11721691_x_at) / Fold change /veh CYB561 (11721691_x_at) / RFU ANKRD19P (11752326_a_at) / Fold change /veh ANKRD19P (11752326_a_at) / RFU OR2T12 /// OR2T33 /// OR2T8 (11738714_s_at) / Fold change /veh OR2T12 /// OR2T33 /// OR2T8 (11738714_s_at) / RFU VCAN (11748164_a_at) / Fold change /veh VCAN (11748164_a_at) / RFU JSRP1 (11732532_at) / Fold change /veh JSRP1 (11732532_at) / RFU KRTAP10-11 (11738290_x_at) / Fold change /veh KRTAP10-11 (11738290_x_at) / RFU MYO3A (11730013_a_at) / Fold change /veh MYO3A (11730013_a_at) / RFU EBF3 (11725865_a_at) / Fold change /veh EBF3 (11725865_a_at) / RFU CAMK2N1 (11719241_x_at) / Fold change /veh CAMK2N1 (11719241_x_at) / RFU C5orf56 (11738088_a_at) / Fold change /veh C5orf56 (11738088_a_at) / RFU OLFML3 (11715873_a_at) / Fold change /veh OLFML3 (11715873_a_at) / RFU LOC100653217 /// NTM (11731650_a_at) / Fold change /veh LOC100653217 /// NTM (11731650_a_at) / RFU MAPK11 (11762145_a_at) / Fold change /veh MAPK11 (11762145_a_at) / RFU FIZ1 (11724087_x_at) / Fold change /veh FIZ1 (11724087_x_at) / RFU OASL (11726364_x_at) / Fold change /veh OASL (11726364_x_at) / RFU SOX15 (11748057_x_at) / Fold change /veh SOX15 (11748057_x_at) / RFU CD79A (11719716_a_at) / Fold change /veh CD79A (11719716_a_at) / RFU HIST1H1D (11736915_at) / Fold change /veh HIST1H1D (11736915_at) / RFU CASKIN2 (11723855_a_at) / Fold change /veh CASKIN2 (11723855_a_at) / RFU LOC730098 (11760151_x_at) / Fold change /veh LOC730098 (11760151_x_at) / RFU OR4N2 (11742367_at) / Fold change /veh OR4N2 (11742367_at) / RFU PRRT2 (11749266_a_at) / Fold change /veh PRRT2 (11749266_a_at) / RFU SNX32 (11753110_a_at) / Fold change /veh SNX32 (11753110_a_at) / RFU CDHR5 (11726645_a_at) / Fold change /veh CDHR5 (11726645_a_at) / RFU RCAN1 (11760418_a_at) / Fold change /veh RCAN1 (11760418_a_at) / RFU FAM167A (11723789_a_at) / Fold change /veh FAM167A (11723789_a_at) / RFU FAM26E (11764081_at) / Fold change /veh FAM26E (11764081_at) / RFU ISYNA1 (11749810_s_at) / Fold change /veh ISYNA1 (11749810_s_at) / RFU ACY1 (11761880_at) / Fold change /veh ACY1 (11761880_at) / RFU 11764098_at / Fold change /veh 11764098_at / RFU SAMD14 (11745864_x_at) / Fold change /veh SAMD14 (11745864_x_at) / RFU NPB (11741838_a_at) / Fold change /veh NPB (11741838_a_at) / RFU TMPRSS6 (11731388_a_at) / Fold change /veh TMPRSS6 (11731388_a_at) / RFU KRTAP10-2 (11738614_at) / Fold change /veh KRTAP10-2 (11738614_at) / RFU ARHGAP8 /// PRR5-ARHGAP8 (11727945_x_at) / Fold change /veh ARHGAP8 /// PRR5-ARHGAP8 (11727945_x_at) / RFU KRTAP5-7 /// NADSYN1 (11734609_at) / Fold change /veh KRTAP5-7 /// NADSYN1 (11734609_at) / RFU RASL12 (11751679_a_at) / Fold change /veh RASL12 (11751679_a_at) / RFU CDKN2B (11736163_a_at) / Fold change /veh CDKN2B (11736163_a_at) / RFU PRF1 (11729649_at) / Fold change /veh PRF1 (11729649_at) / RFU, ZNF638 /// ZNF638-IT1 / Fold change vs veh, ZNF638 /// ZNF638-IT1 / RFU, PANK3 / Fold change vs veh, PANK3 / RFU, SH3YL1 / Fold change vs veh, SH3YL1 / RFU, ZEB2 / Fold change vs veh, ZEB2 / RFU, NRIP1 / Fold change vs veh, NRIP1 / RFU, PTTG1IP / Fold change vs veh, PTTG1IP / RFU, CAPN2 / Fold change vs veh, CAPN2 / RFU, MED14 / Fold change vs veh, MED14 / RFU, SNORA58 / Fold change vs veh, SNORA58 / RFU, C1orf63 / Fold change vs veh, C1orf63 / RFU, LRRFIP1 / Fold change vs veh, LRRFIP1 / RFU, NDUFAF7 / Fold change vs veh, NDUFAF7 / RFU, SLC12A2 / Fold change vs veh, SLC12A2 / RFU, IBTK / Fold change vs veh, IBTK / RFU, ESF1 / Fold change vs veh, ESF1 / Fold change vs veh, TMEM50B / RFU, TAOK1 / Fold change vs veh, TAOK1 / RFU, ACBD3 / Fold change vs veh, ACBD3 / RFU, TMA16 / Fold change vs veh, TMA16 / RFU, RWDD3 / Fold change vs veh, RWDD3 / RFU, BCAT1 / Fold change vs veh, BCAT1 / RFU, EDEM3 / Fold change vs veh, EDEM3 / RFU, TMEM33 / Fold change vs veh, TMEM33 / RFU, WDR75 / Fold change vs veh, WDR75 / RFU, AHCTF1 / Fold change vs veh, AHCTF1 / RFU, TFRC / Fold change vs veh, TFRC / RFU, ZDHHC17 / Fold change vs veh, ZDHHC17 / RFU, NOM1 / Fold change vs veh, NOM1 / RFU, ARL8B / Fold change vs veh, ARL8B / RFU, ZBTB11 / Fold change vs veh, ZBTB11 / RFU, TAMM41 / Fold change vs veh, TAMM41 / RFU, KIAA1704 /// LOC100996395 / Fold change vs veh, KIAA1704 /// LOC100996395 / RFU, ING1 / Fold change vs veh, ING1 / RFU, TRMT61B / Fold change vs veh, TRMT61B / RFU, FUBP3 / Fold change vs veh, FUBP3 / RFU, TP53 / Fold change vs veh, TP53 / RFU, TNKS2 / Fold change vs veh, TNKS2 / RFU, ZFP14 / Fold change vs veh, ZFP14 / RFU, ACTR2 / Fold change vs veh, ACTR2 / RFU, PPP3R1 / Fold change vs veh, PPP3R1 / RFU, PIK3R1 / Fold change vs veh, PIK3R1 / RFU, HNRNPA1 / Fold change vs veh, HNRNPA1 / RFU, RNF170 / Fold change vs veh, RNF170 / RFU, ZNF28 / Fold change vs veh, ZNF28 / RFU, RNGTT / Fold change vs veh, RNGTT / RFU, OGT / Fold change vs veh, OGT / RFU, BRD1 / Fold change vs veh, BRD1 / RFU, MARS / Fold change vs veh, MARS / RFU, ZNF655 / Fold change vs veh, ZNF655 / RFU, FAHD1 / Fold change vs veh, FAHD1 / RFU, BDP1 / Fold change vs veh, BDP1 / RFU, LRRCC1 / Fold change vs veh, LRRCC1 / RFU, ARID1A / Fold change vs veh, ARID1A / RFU, ZNF146 / Fold change vs veh, ZNF146 / RFU, ZNF330 / Fold change vs veh, ZNF330 / RFU, GPN3 / Fold change vs veh, GPN3 / RFU, C9orf123 / Fold change vs veh, C9orf123 / RFU, N4BP2L2 / Fold change vs veh, N4BP2L2 / RFU, ARFIP1 / Fold change vs veh, ARFIP1 / RFU, FAM179B / Fold change vs veh, FAM179B / RFU, BCL10 / Fold change vs veh, BCL10 / RFU, UHRF1BP1L / Fold change vs veh, UHRF1BP1L / RFU, BET1 / Fold change vs veh, BET1 / RFU, CNOT2 / Fold change vs veh, CNOT2 / RFU, ZNF268 / Fold change vs veh, ZNF268 / Fold change vs veh, ZNF507 / RFU, DGCR2 / Fold change vs veh, DGCR2 / RFU, WDSUB1 / Fold change vs veh, WDSUB1 / Fold change vs veh, HSP90B1 /// MIR3652 / RFU, ADSS / Fold change vs veh, ADSS / RFU, GK / Fold change vs veh, GK / RFU, ZNF148 / Fold change vs veh, ZNF148 / RFU, TAF9 / Fold change vs veh, TAF9 / RFU, SLC1A5 / Fold change vs veh, SLC1A5 / RFU, SLMO2 / Fold change vs veh, SLMO2 / RFU, ABCC4 / Fold change vs veh, ABCC4 / RFU, LOC101060439 /// RAP1B / Fold change vs veh, LOC101060439 /// RAP1B / RFU, RFX7 / Fold change vs veh, RFX7 / RFU, GTPBP10 / Fold change vs veh, GTPBP10 / RFU, CNEP1R1 / Fold change vs veh, CNEP1R1 / RFU, BIVM-ERCC5 /// ERCC5 / Fold change vs veh, BIVM-ERCC5 /// ERCC5 / RFU, ILF3 / Fold change vs veh, ILF3 / RFU 11762660_at / Fold change /veh 11762660_at / RFU VCAN (11757783_s_at) / Fold change /veh VCAN (11757783_s_at) / RFU DDX43 (11728927_at) / Fold change /veh DDX43 (11728927_at) / RFU KRT8 (11758188_x_at) / Fold change /veh KRT8 (11758188_x_at) / RFU NKD1 (11759106_at) / Fold change /veh NKD1 (11759106_at) / RFU SRD5A1 (11742802_a_at) / Fold change /veh SRD5A1 (11742802_a_at) / RFU TPSAB1 /// TPSB2 (11721975_s_at) / Fold change /veh TPSAB1 /// TPSB2 (11721975_s_at) / RFU GSTM3 (11746129_a_at) / Fold change /veh GSTM3 (11746129_a_at) / RFU IL23R (11737362_x_at) / Fold change /veh IL23R (11737362_x_at) / RFU TMEM51 (11727254_a_at) / Fold change /veh TMEM51 (11727254_a_at) / RFU PIWIL2 (11732686_x_at) / Fold change /veh PIWIL2 (11732686_x_at) / RFU ORM1 (11744905_x_at) / Fold change /veh ORM1 (11744905_x_at) / RFU CCDC152 (11743942_at) / Fold change /veh CCDC152 (11743942_at) / RFU ECM1 (11717891_a_at) / Fold change /veh ECM1 (11717891_a_at) / RFU IL23R (11748794_a_at) / Fold change /veh IL23R (11748794_a_at) / RFU TNFAIP8L3 (11732012_x_at) / Fold change /veh TNFAIP8L3 (11732012_x_at) / RFU MBOAT4 (11741988_at) / Fold change /veh MBOAT4 (11741988_at) / RFU 11764193_at / Fold change /veh 11764193_at / RFU TMEM53 (11763286_at) / Fold change /veh TMEM53 (11763286_at) / RFU MAGEB2 (11727129_at) / Fold change /veh MAGEB2 (11727129_at) / RFU TMEM200A (11744735_a_at) / Fold change /veh TMEM200A (11744735_a_at) / RFU CCDC152 (11751479_a_at) / Fold change /veh CCDC152 (11751479_a_at) / RFU FAM211A (11726209_a_at) / Fold change /veh FAM211A (11726209_a_at) / RFU RGS16 (11746705_a_at) / Fold change /veh RGS16 (11746705_a_at) / RFU VCAN (11755009_s_at) / Fold change /veh VCAN (11755009_s_at) / RFU RHOB (11743442_s_at) / Fold change /veh RHOB (11743442_s_at) / RFU RGS16 (11720943_a_at) / Fold change /veh RGS16 (11720943_a_at) / RFU RGS16 (11720944_at) / Fold change /veh RGS16 (11720944_at) / RFU, VPS4B / Fold change vs veh, VPS4B / RFU, CREB1 / Fold change vs veh, CREB1 / RFU, DNAJC13 / Fold change vs veh, DNAJC13 / RFU, GNAQ / Fold change vs veh, GNAQ / RFU, CDK5R1 / Fold change vs veh, CDK5R1 / RFU, ZRANB3 / Fold change vs veh, ZRANB3 / RFU, CUL4A / Fold change vs veh, CUL4A / RFU, CCNY / Fold change vs veh, CCNY / RFU, UFL1 / Fold change vs veh, UFL1 / RFU, COG3 / Fold change vs veh, COG3 / RFU, DIAPH2 / Fold change vs veh, DIAPH2 / RFU, SKA2 / Fold change vs veh, SKA2 / RFU, AFF3 / Fold change vs veh, AFF3 / RFU, LMF1 / Fold change vs veh, LMF1 / RFU, IPO11 / Fold change vs veh, IPO11 / RFU, DFFB / Fold change vs veh, DFFB / RFU, FOXP1 / Fold change vs veh, FOXP1 / RFU, CARD8 / Fold change vs veh, CARD8 / RFU, STRN3 / Fold change vs veh, STRN3 / RFU, ADK / Fold change vs veh, ADK / RFU, RASSF2 / Fold change vs veh, RASSF2 / RFU, WIPF1 / Fold change vs veh, WIPF1 / RFU, LARP1B / Fold change vs veh, LARP1B / RFU, RASA1 / Fold change vs veh, RASA1 / RFU, RB1 / Fold change vs veh, RB1 / RFU, PPFIA1 / Fold change vs veh, PPFIA1 / RFU, MAT2A / Fold change vs veh, MAT2A / RFU, CCT5 / Fold change vs veh, CCT5 / RFU, WDR92 / Fold change vs veh, WDR92 / RFU, CUX1 / Fold change vs veh, CUX1 / RFU, TTC7A / Fold change vs veh, TTC7A / RFU, TMEM135 / Fold change vs veh, TMEM135 / RFU, DEPTOR / Fold change vs veh, DEPTOR / RFU, CPM / Fold change vs veh, CPM / RFU, DNAJB6 / Fold change vs veh, DNAJB6 / RFU, CACNA2D3 / Fold change vs veh, CACNA2D3 / RFU, DTX4 / Fold change vs veh, DTX4 / RFU, TFCP2 / Fold change vs veh, TFCP2 / RFU, GMCL1 /// GMCL1P1 / Fold change vs veh, GMCL1 /// GMCL1P1 / RFU, AEBP2 / Fold change vs veh, AEBP2 / RFU, SNHG1 /// SNORD22 /// SNORD25 /// SNORD26 /// SNORD27 /// SNORD28 /// SNORD29 /// SNORD31 / Fold change vs veh, SNHG1 /// SNORD22 /// SNORD25 /// SNORD26 /// SNORD27 /// SNORD28 /// SNORD29 /// SNORD31 / Fold change (Aza/veh), C12orf56 (ProbeSet 11735607_a_at) / Fold change (ACY-1035/veh), C12orf56 (ProbeSet 11735607_a_at) / Fold change (Aza/veh), FGFR1OP (ProbeSet 11751329_s_at) / Fold change (ACY-1035/veh), FGFR1OP (ProbeSet 11751329_s_at) / Fold change (Aza/veh), VPS36 (ProbeSet 11739960_a_at) / Fold change (ACY-1035/veh), VPS36 (ProbeSet 11739960_a_at) / RFU SYPL1 (11715823_x_at) / Fold change /veh SYPL1 (11715823_x_at) / RFU IGFBP7 (11715501_s_at) / Fold change /veh IGFBP7 (11715501_s_at) / RFU REEP3 (11722064_at) / Fold change /veh REEP3 (11722064_at) / RFU IGLL1 (11728026_x_at) / Fold change /veh IGLL1 (11728026_x_at): dose or concentration left out as unconfirmed. The following applies: MV-4-11 cells, 48 hours.

As to `Nc1ccc(-c2cccs2)cc1NC(=O)c1ccc2c(c1)cc(C1CC1)n2CCN1CCOCC1` [ACY-1035], the “Fold change /veh TPSAB1 /// TPSB2 (11721975_s_at)” value worked out at 0.95.
